Data on twelve compounds can be found in patent US20180035670A1, “ACTIVE COMPOUND COMBINATIONS” (BAYER CROPSCIENCE AKTIENGESELLSCHAFT, priority 2015, published 2018).

For assay [1], the system named is Venturia inaequalis. The experiment in a line: in vivo preventive test on Venturia test (apples). To be noted: for pest or weed control at 0.25 ppm: read-out: Efficacy in % found, 0.25 ppm a.i., apples, 10 days after inoculation; for pest or weed control at 0.5 ppm: read-out: Efficacy in % found, 0.5 ppm a.i., apples, 10 days after inoculation; for pest or weed control at 1 ppm: read-out: Efficacy in % found, 1 ppm a.i., apples, 10 days after inoculation; for pest or weed control at 10 ppm: read-out: Efficacy in % found, 10 ppm a.i., apples, 10 days after inoculation; for pest or weed control at 2 ppm: read-out: Efficacy in % found, 2 ppm a.i., apples, 10 days after inoculation; for Efficacy in % found: apples, 10 days after inoculation.
Description: After the spray coating has dried on, the plants are inoculated with an aqueous conidia suspension of the causal agent of apple scab (Venturia inaequalis) and then remain for 1 day in an incubation cabinet at approximately 20° C. and a relative atmospheric humidity of 100%. The plants are then placed in a greenhouse at approximately 21° C. and a relative atmospheric humidity of approximately 90%.
The test is evaluated 10 days after the inoculation.

In assay [2] the test system is Phakopsora pachyrhizi. In words: in vivo preventive test on Phakopsora test (soybeans). Conditions: 7 days after inoculation; for pest or weed control at 0.5 ppm: 0.5 ppm a.i.; for pest or weed control at 1 ppm: 1 ppm a.i.; for pest or weed control at 0.25 ppm: 0.25 ppm a.i.
The test system of assay [3] is Sphaerotheca fuliginea. In words: in vivo preventive test on Sphaerotheca test (cucumbers). To be noted: 7 days after inoculation.
Description: After the spray coating has dried on, the plants are inoculated with an aqueous spore suspension of Sphaerotheca fuliginea. The plants are then placed in a greenhouse at approximately 23° C. and a relative atmospheric humidity of approximately 70%.
The test is evaluated 7 days after the inoculation.
Assay [4] relates to Alternaria solani. In words: in vivo preventive test on Alternaria test (tomatoes). To be noted: 3 days after inoculation.
Description: After the spray coating has dried on, the plants are inoculated with an aqueous spore suspension of Alternaria solani. The plants are then placed in an incubation cabinet at approximately 20° C. and a relative atmospheric humidity of 100%.
The test is evaluated 3 days after the inoculation.
Assay [5] has as its system Botrytis cinerea. In words: in vivo preventive test on Botrytis test (beans). To be noted: 2 days after inoculation.
Description: After the spray coating has dried on, 2 small pieces of agar covered with growth of Botrytis cinerea are placed on each leaf.
The inoculated plants are placed in a darkened chamber at 20° C. and a relative atmospheric humidity of 100%.
2 days after the inoculation, the size of the lesions on the leaves is evaluated.
The test system of assay [6] is Phytophthora infestans. In kind it is in vivo. Conditions: tomatoes, 3 days after inoculation.
The mark [7] stands for this setting: Phakopsora pachyrhizi, 168 h, read-out: Efficacy in % found.

Values joined by “and” are separate entries in the source; they are usually repeats but may differ in a detail not shown here. Identical values can stand only once. Like-named read-outs stand apart in the source and are kept apart here.

`CC(O)(Cn1cncn1)c1ccc(Oc2ccc(Cl)cc2)cc1C(F)(F)F` (centres unmarked) [1.084, 2-[4-(4-chlorophenoxy)-2-(trifluoromethyl)phenyl]-1-(1H-1,2,4-triazol-1-yl)propan-2-ol]: the pest or weed control at 0.25 ppm in assay [1] (Venturia inaequalis, 240 h) came to 11%. Besides, the pest or weed control at 0.5 ppm in assay [1] (Venturia inaequalis, 240 h) came out at 34%; in assay [2] (setting [7]) it was 8%. Moreover, the pest or weed control at 1 ppm in assay [1] (Venturia inaequalis, 240 h) was 31%; in assay [2] (setting [7]) it was 0%. For the same compound, the “Efficacy in % found” value is 0% in assay [3] (0.5 ppm a.i.); 8% in assay [4] (0.25 ppm a.i.); 8% and 0% in assay [4] (0.5 ppm a.i.); 15% in assay [4] (1 ppm a.i.).

In the case of `O[C@@H](c1cccnc1)c1c(-c2ccc(Cl)cc2F)noc1-c1ccc(F)cc1F` [1.104, (S)-[3-(4-chloro-2-fluorophenyl)-5-(2,4-difluorophenyl)-1,2-oxazol-4-yl](pyridin-3-yl)methanol], the pest or weed control at 0.25 ppm in assay [1] (Venturia inaequalis, 240 h) stood at 0%; in assay [2] (setting [7]), 0%. Also, the pest or weed control at 0.5 ppm in assay [1] (Venturia inaequalis, 240 h) turned out to be 11%. Moreover, the pest or weed control at 1 ppm stood at 19% in assay [1] (Venturia inaequalis, 240 h) and 0% in assay [2] (setting [7]). The “Efficacy in % found” value worked out at 15% in assay [5] (0.5 ppm a.i.); 26% in assay [5] (1 ppm a.i.); 0% in assay [3] (0.25 ppm a.i.); 0% in assay [3] (1 ppm a.i.); 0% in assay [4] (0.25 ppm a.i.); 0% in assay [4] (0.5 ppm a.i.). Further, the “Efficacy in % found” value in assay [4] (1 ppm a.i.) is recorded as 0%.

On to `COC(=O)Nc1nc2ccccc2[nH]1` [4.002, carbendazim, reference compound], for which, in assay [1] (Venturia inaequalis, 240 h, read-out: Efficacy in % found, 5 ppm a.i., apples, 10 days after inoculation), the pest or weed control at 5 ppm was 8%. In addition, the pest or weed control at 10 ppm in assay [1] (Venturia inaequalis, 240 h) was 21%. Moreover, the pest or weed control at 1.25 ppm in assay [2] (Phakopsora pachyrhizi, 168 h, 1.25 ppm a.i., read-out: Efficacy in % found) was determined as 0%. Moreover, the pest or weed control at 2.5 ppm in assay [2] (Phakopsora pachyrhizi, 168 h, 2.5 ppm a.i., read-out: Efficacy in % found) came to 0%. The “Efficacy in % found” value in assay [5] (5 ppm a.i.) and in assay [4] (10 ppm a.i.) was 0% in each case.

Turning to `N#Cc1c(Cl)c(Cl)c(Cl)c(C#N)c1Cl` [5.004, chlorothalonil, reference compound], the pest or weed control at 25 ppm in assay [1] (Venturia inaequalis, 240 h, read-out: Efficacy in % found, 25 ppm a.i., apples, 10 days after inoculation) was determined as 36%. Also, the pest or weed control at 6.25 ppm in assay [2] (Phakopsora pachyrhizi, 168 h, 6.25 ppm a.i., read-out: Efficacy in % found) came to 18%. Further, the pest or weed control at 12.5 ppm in assay [2] (Phakopsora pachyrhizi, 168 h, 12.5 ppm a.i., read-out: Efficacy in % found) amounted to 0%. For the same compound, the “Efficacy in % found” value in assay [4] (50 ppm a.i.) came out at 0%.

On to `O=[N+]([O-])c1cc(C(F)(F)F)c(Cl)c([N+](=O)[O-])c1Nc1ncc(C(F)(F)F)cc1Cl` [14.004, fluazinam, reference compound], for which the “Efficacy in % found” value was found to be 45% in assay [6] (10 ppm a.i.), 28% in assay [6] (20 ppm a.i.), 63% in assay [5] (5 ppm a.i.) and 0% in assay [4] (10 ppm a.i.). In addition, the pest or weed control at 10 ppm in assay [1] (Venturia inaequalis, 240 h) is 0%. Moreover, in assay [2] (Phakopsora pachyrhizi, 168 h, 5 ppm a.i., read-out: Efficacy in % found), the pest or weed control at 5 ppm was 0%.

In the case of `CC1(C)N=C(c2cnc3ccccc3c2)c2ccccc2C1(F)F` [15.090, 3-(4,4-difluoro-3,3-dimethyl-3,4-dihydroisoquinolin-1-yl)quinoline], the pest or weed control at 0.25 ppm was found to be 19% in assay [1] (Venturia inaequalis, 240 h) and 0% in assay [2] (setting [7]). Besides, the pest or weed control at 0.5 ppm in assay [2] (setting [7]) stood at 0%. Also, in assay [2] (setting [7]), the pest or weed control at 1 ppm turned out to be 0%. For the same compound, the results for the “Efficacy in % found” value in assay [5] (0.25 ppm a.i.), in assay [5] (0.5 ppm a.i.) and in assay [5] (1 ppm a.i.) were 0%, 0% and 28%, respectively.

For the compound `CCC1CC(C)(C)c2cccc(NC(=O)c3cccnc3C(F)F)c21` (centres unmarked) [(I-3), 2-(difluoromethyl)-N-(3-ethyl-1,1-dimethyl-2,3-dihydro-1H-inden-4-yl)nicotinamide], the “Efficacy in % found” value in assay [6] (5 ppm a.i.) is recorded as 28%; in assay [6] (20 ppm a.i.), 4%; in assay [5] (1 ppm a.i.), 15%; in assay [5] (2 ppm a.i.), 23%; in assay [3] (0.5 ppm a.i.) it was 0%; in assay [3] (1 ppm a.i.), 0%. In addition, the “Efficacy in % found” value in assay [4] (0.25 ppm a.i.) was found to be 15%; in assay [4] (0.5 ppm a.i.), 23%; in assay [4] (1 ppm a.i.), 40%; in assay [4] (2 ppm a.i.), 35%. For the same compound, in assay [1] (Venturia inaequalis, 240 h), the pest or weed control at 0.25 ppm came to 4%. Also, the pest or weed control at 0.5 ppm in assay [1] (Venturia inaequalis, 240 h) came out at 18%; in assay [2] (setting [7]) it was 65%. In assay [1] (Venturia inaequalis, 240 h), the pest or weed control at 2 ppm was found to be 11%. Further, the pest or weed control at 1 ppm in assay [2] (setting [7]) was 84%.

For `CC[C@@H]1CC(C)(C)c2cccc(NC(=O)c3cccnc3C(F)F)c21` [(I-4), 2-(difluoromethyl)-N-[(3R)-3-ethyl-1,1-dimethyl-2,3-dihydro-1H-inden-4-yl]nicotinamide], the “Efficacy in % found” value in assay [6] (10 ppm a.i.) turned out to be 10%; in assay [6] (20 ppm a.i.) it was 7%; in assay [5] (0.25 ppm a.i.), 0%; in assay [5] (0.5 ppm a.i.), 8%; in assay [4] (0.25 ppm a.i.) it was 8%; in assay [4] (0.5 ppm a.i.) it was 40%. Besides, the “Efficacy in % found” value is 30% and 55% in assay [4] (1 ppm a.i.); 35% in assay [4] (2 ppm a.i.). Also, the pest or weed control at 0.25 ppm in assay [1] (Venturia inaequalis, 240 h) amounted to 15%; in assay [2] (setting [7]) it was 65%. In assay [2] (setting [7]), the pest or weed control at 0.5 ppm is 85%.

For `CCCC1CC(C)(C)c2cccc(NC(=O)c3cccnc3C(F)F)c21` (centres unmarked) [(I-5), 2-(difluoromethyl)-N-(1,1-dimethyl-3-propyl-2,3-dihydro-1H-inden-4-yl)nicotinamide], the “Efficacy in % found” value in assay [6] (5 ppm a.i.) was found to be 17%; in assay [6] (10 ppm a.i.) it was 0%; in assay [6] (20 ppm a.i.) it was 4%; in assay [5] (0.25 ppm a.i.) it was 0%; in assay [5] (0.5 ppm a.i.), 0%; in assay [4] (1 ppm a.i.), 0%. The “Efficacy in % found” value in assay [4] (2 ppm a.i.) is on record as 8%. Also, the pest or weed control at 0.25 ppm in assay [1] (Venturia inaequalis, 240 h) was found to be 8%; in assay [2] (setting [7]), 60%. Also, the pest or weed control at 0.5 ppm in assay [1] (Venturia inaequalis, 240 h) is 0%. In addition, the pest or weed control at 2 ppm in assay [1] (Venturia inaequalis, 240 h) came out at 0%.

Turning to `CCC[C@@H]1CC(C)(C)c2cccc(NC(=O)c3cccnc3C(F)F)c21` [(I-6), 2-(difluoromethyl)-N-[(3R)-1,1-dimethyl-3-propyl-2,3-dihydro-1H-inden-4-yl]nicotinamide], the “Efficacy in % found” value in assay [6] (5 ppm a.i.) is 21%; in assay [6] (10 ppm a.i.), 14%; in assay [6] (20 ppm a.i.), 8%; in assay [5] (0.25 ppm a.i.), 15%; in assay [5] (0.5 ppm a.i.) it was 0%; in assay [5] (1 ppm a.i.), 19% and 11%. Besides, the “Efficacy in % found” value in assay [4] (0.25 ppm a.i.) was 0%; in assay [4] (0.5 ppm a.i.), 0%; in assay [4] (1 ppm a.i.), 8% and 15%; in assay [4] (2 ppm a.i.), 51%. Further, the pest or weed control at 0.5 ppm in assay [1] (Venturia inaequalis, 240 h) is 0%. In addition, the pest or weed control at 2 ppm in assay [1] (Venturia inaequalis, 240 h) was 15%. Moreover, the pest or weed control at 0.25 ppm in assay [2] (setting [7]) came to 75%.

With mancozeb [5.023, reference compound], the “Efficacy in % found” value worked out at 31% in assay [1] (25 ppm a.i.); 34% in assay [1] (50 ppm a.i.); 24% in assay [2] (6.25 ppm a.i.); 41% in assay [2] (12.5 ppm a.i.); 0% in assay [5] (25 ppm a.i.); 0% in assay [5] (50 ppm a.i.). Moreover, the “Efficacy in % found” value in assay [4] (50 ppm a.i.) amounted to 0%.

On to propineb [5.029, reference compound], for which the “Efficacy in % found” value was 11% in assay [1] (12.5 ppm a.i.); 94% in assay [1] (25 ppm a.i.); 0% in assay [2] (6.25 ppm a.i.); 0% in assay [2] (12.5 ppm a.i.); 0% in assay [5] (25 ppm a.i.); 0% in assay [4] (50 ppm a.i.).
